# Experimental data: patent US4477451A, “5,6-Dihydro-11-methylenemorphanthridin-6-ones, their preparation and drugs containing these compounds” (BASF Aktiengesellschaft, priority 1982, dated 1984)
# System: gastric ulcers (ulcerous mucosal lesions)
# Test: antiulcerogenic action on the rat (reserpine/indometacin/cold-induced gastric ulcers, oral test substance)
# Type: in vivo, female Sprague-Dawley rats
# Settings: for ED50: Rattus norvegicus, oral, dose which reduces the ulcerous area by 50%, reserpine 1 mg/kg i.p., indometacin 21.5 mg/kg i.p., 6 hours at 8° C., read-out: Antiulcerogenic action on the rat, ED 50%; for Antiulcerogenic action on the rat, Relative activity: relative to pirenzepine = 1.0
# Procedure: To investigate the antiulcerogenic action, 1 mg/kg of reserpine is administered intraperitoneally to groups of 10 female Sprague-Dawley rats each weighing 160-180 g, and the rats then remain without food for 18 hours (water ad libitum). This period is followed by intraperitoneal administration of 21.5 mg/kg of indometacin and oral administration of the test substance to the animals, which are then kept for 6 hours at 8° C., after which they are sacrificed. The stomachs are removed, and the area of ulcerous mucosal lesions is determined. The dose which reduces the ulcerous area by 50%, ie. the ED 50%, is determined from the linear regression between the logarithms of the doses administered and the relative reduction in the area of ulcerations, based on the control animals.
# Pirenzepine (5,11-dihydro-11-[(4-methylpiperazin-1-yl)-acetyl]-6H-pyrido[2,3-b][1,4]benzodiazepin-6-one; German Pat. No. 1,795,183) is used as the reference substance.
SMILES,ED50,"Antiulcerogenic action on the rat, Relative activity"
"CN(C)CCOC(=O)C=C1c2ccccc2NC(=O)c2ccccc21 (mixture of isomers) [Example 2, cis,trans-11-(2-Dimethylamino)-ethoxycarbonylmethylene-5,6-dihydromorphanthridin-6-one]",0.64 mg/kg,10.2
"O=C(C=C1c2ccccc2NC(=O)c2ccccc21)OCCN1CCOCC1 (mixture of isomers) [Example 1, cis,trans-11-(2-Morpholin-1-yl)-ethoxycarbonylmethylene-5,6-dihydromorphanthridin-6-one]",1.9 mg/kg,3.4
"O=C(/C=C1\c2ccccc2NC(=O)c2ccccc21)OCCN1CCOCC1 [Example 1, trans, trans-11-(2-morpholin-1-yl)-ethoxycarbonylmethylene-5,6-dihydromorphanthridin-6-one]",5.3 mg/kg,1.2
"CN1CCN(CC(=O)N2c3ccccc3C(=O)Nc3cccnc32)CC1 [pirenzepine, 5,11-dihydro-11-[(4-methylpiperazin-1-yl)-acetyl]-6H-pyrido[2,3-b][1,4]benzodiazepin-6-one, reference compound]",6.5 mg/kg,
"O=C(/C=C1/c2ccccc2NC(=O)c2ccccc21)OCCN1CCOCC1 [Example 1, cis, cis-11-(2-morpholin-1-yl)-ethoxycarbonylmethylene-5,6-dihydromorphanthridin-6-one]",1.5 mg/kg,4.3
"O=C(C=C1c2ccccc2NC(=O)c2ccccc21)OCCCN1CCOCC1 (mixture of isomers) [Example 14, cis,trans-11-(3-Morpholin-1-yl)-propoxycarbonylmethylene-5,6-dihydromorphanthridin-6-one]",0.83 mg/kg,7.8
